The values below come from patent publication US8686022B2, “7-(piperazine-1-ymethyl)-1H-indole-2-carboxylic acid (phenyl)-amide derivatives and allied compounds as p38 MAP kinase inhibitors for the treatment of respiratory diseases” (Boehringer Ingelheim International GmbH, priority 2008, dated 2014).

In one data set the target is p38 MAP-kinase (Homo sapiens, UniProt Q16539). The data set can be described thus: p38 MAP-kinase enzymatic assay (phosphorylation of GST-tagged ATF2, chemoluminescence). Type of data set: biochemical. The following applies: inhibitor concentration 1 μM; activated p38 MAP-kinase 1 nM; ATP 100 μM; read-out: p38 (% Inh @ 1 μM). The protocol: In this, the amount of a substrate phosphorylated by the kinase is quantified. The test is carried out as follows:
The kinase reaction is carried out in the presence of HEPES (20 mM, pH 7), MgCl2 (10 mM), DTT (1 mM) and TWEEN20 (0.01%). First, dimethylsulphoxide or inhibitor (final concentration: 1 μM) dissolved in dimethylsulphoxide are placed in a reaction vessel. Then the activated p38 MAP-kinase (final concentration 1 nM) is added and the mixture is incubated for 4 h at ambient temperature. Then a mixture of substrate (GST-tagged ATF2) and ATP is added and everything is incubated together for a further hour (final concentration ATP: 100 μM; final concentration ATF2: 10 nM).
The concentration of phosphorylated ATF2 is quantified by chemoluminescence-induced light emission. For this, a glutathione donor bead (final concentration: 5 μg/ml) which binds to the gluthathione on the ATF2 and phospho-ATF2 antibodies are added to the reaction mixture (final concentration: 3 nM; this binds the phosphate group added by the kinase reaction) to which a Protein A Acceptor Bead (final concentration: 5 μg/ml) binds. These components are dissolved in a buffer which contains 20 mM HEPES pH 7.0, 200 mM NaCL, 80 mM EDTA as well as 0.3% BSA. This reaction mixture is incubated in the dark for 1 hour at ambient temperature. When these beads come physically close, visible light is emitted which is measured in a photometer at 520-620 nm.
To determine the inhibitory activity of the compounds according to the invention a calculation is made to determine the percentage by which the kinase activity is inhibited at a fixed inhibitor concentration of 1 μM. The maximum activity is determined by non-inhibited kinase. The minimum activity or nonspecific background activity is determined using a reaction mixture without kinase.
Table 2 summarises the degree of inhibition of the enzyme p38 MAP-kinase—as described hereinbefore—mediated by the compounds according to the invention detailed in the section “Preparation of the final compounds”.

Data set [1] in a line: Determining the solubility (saturated solution in McIlvaine buffer pH 7.4, UV spectroscopy). Type of data set: physicochemical. Conditions: pH 7.4, aqueous buffer, thermodynamic from solid, shaken 2 hours, 0.75 mg solid in 0.75 ml. As to the method: Determining the Solubility:
Saturated solutions are prepared in suitable well dishes by adding 0.75 ml of a McIlvaine buffer (pH 7.4) to the well in question containing 0.75 mg of solid of an active substance. The wells are shaken for 2 hours and then filtration is carried out through a suitable filter membrane (typically polytetrafluoroethylene with a pore size of 0.45 μm). Filter absorption is prevented by discarding the first few drops of filtrate. The amount of active substance dissolved is determined by UV spectroscopy.

A further data set deals with cytochrome P450 2C9 (Homo sapiens, UniProt P11712). Briefly: Determining the cyp2C9 activity (O-demethylation of [O-methyl-14C]-naproxen). Type of data set: in vitro ADME. Conditions: human recombinant cytochrome P450 2C9; 37° C.; <0.4 μM when inhibition >50% at lowest concentration; read-out: CYP 2C9 IC50. As to the method: Determining the cyp2C9 Activity:
The assay is carried out in a robot system with 96-well plates. The final incubation volume is 200 μl of TRIS-Puffer (0.1 M), magnesium chloride (5 mM), recombinant protein (40 pmol/ml), ^14C-labelled naproxen (80 μM) and the test compound in one of 4 concentrations (50 μM, 10 μM, 2 μM and 0.4 μM) as a duplicate in each case. After a short preincubation period the reactions are started by the addition of the cofactor (NADPH, 1 mM) and ended after 15 min by the addition of 50 μl of a 10% aqueous trichloroacetic acid solution. One aliquot of the incubate is transferred onto a 96-well solid phase extraction plate and extracted. The ^14C-formaldehyde formed during the reaction is not retained on the solid phase extraction plate and is thus separated from the unmetabolised substrate by washing the solid phase extraction plate with water. One aliquot of the eluate is transferred into a well plate suitable for liquid scintillation. […] The IC50 is determined by the least squares method using the following formula: control activity=(100% control activity/(1+(I/IC50)S))−B where I=Inhibitor concentration S=Pitch B=Background activity
When the inhibition of the reaction is >50% even at the lowest concentration of the test compound, the IC50 is given as <0.4 μM.

Values after ≈ are worked out from the molar mass of the structure shown.

Chain of cytochrome P450 2C9 (P11712 whole entry): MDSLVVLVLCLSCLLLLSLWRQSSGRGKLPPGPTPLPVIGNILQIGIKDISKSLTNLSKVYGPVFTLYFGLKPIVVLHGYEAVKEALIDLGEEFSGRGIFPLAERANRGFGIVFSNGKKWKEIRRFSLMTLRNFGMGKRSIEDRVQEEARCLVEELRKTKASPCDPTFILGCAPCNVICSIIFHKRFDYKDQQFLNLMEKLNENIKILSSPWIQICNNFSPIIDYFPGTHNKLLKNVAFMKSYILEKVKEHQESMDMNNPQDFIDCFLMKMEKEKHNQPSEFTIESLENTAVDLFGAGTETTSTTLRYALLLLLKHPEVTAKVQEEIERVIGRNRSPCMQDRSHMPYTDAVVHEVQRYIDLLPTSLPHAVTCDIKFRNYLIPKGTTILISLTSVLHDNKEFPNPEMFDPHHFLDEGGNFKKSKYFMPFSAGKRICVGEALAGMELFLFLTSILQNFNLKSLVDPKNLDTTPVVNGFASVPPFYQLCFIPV
Chain of p38 MAP-kinase (Q16539 whole entry): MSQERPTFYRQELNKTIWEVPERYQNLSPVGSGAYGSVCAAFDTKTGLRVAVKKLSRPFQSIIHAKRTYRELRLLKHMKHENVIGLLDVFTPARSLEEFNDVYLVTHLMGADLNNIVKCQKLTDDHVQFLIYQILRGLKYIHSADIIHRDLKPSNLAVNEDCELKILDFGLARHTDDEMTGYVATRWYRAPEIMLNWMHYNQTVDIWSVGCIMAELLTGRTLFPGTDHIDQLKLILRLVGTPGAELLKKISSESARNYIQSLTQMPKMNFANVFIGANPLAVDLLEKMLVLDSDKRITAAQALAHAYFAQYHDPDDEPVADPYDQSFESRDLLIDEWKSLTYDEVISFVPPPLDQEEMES

The solubility is the dissolved amount per volume that the medium holds. Read a low solubility as a poorly soluble substance. By IC50 is commonly meant the midpoint of a concentration-inhibition curve. As to `COc1c(NC(=O)c2cc3cccc(CN4CCN(C(=O)CN5CCN(C(C)C)CC5)CC4)c3n2C)cc(C(C)(C)C)cc1NS(C)(=O)=O` [1(14), 7-{4-[2-(4-isopropyl-piperazin-1-yl)-acetyl]-piperazin-1-ylmethyl}-1-methyl-1H-indole-2-carboxylic acid-(5-tert-butyl-3-methanesulphonylamino-2-methoxy-phenyl)-amide], the inhibition at 1 µM at p38 MAP-kinase came to 99.1%. Besides, the solubility at 2 h in data set [1] amounted to 120 µg/mL (≈ 172 µM). In addition, the IC50 on cytochrome P450 2C9 worked out at 630 nM.

Take `COc1c(NC(=O)c2cc3cccc(CN4CCN(C(=O)CN5CC[C@H](O)C5)CC4)c3n2C)cc(C(C)(C)C)cc1NS(C)(=O)=O` [1(15), (S)-7-{4-[2-(3-hydroxy-pyrrolidin-1-yl)-acetyl]-piperazin-1-ylmethyl}-1-methyl-1H-indole-2-carboxylic acid-(5-tert-butyl-3-methanesulphonylamino-2-methoxy-phenyl)-amide]: at p38 MAP-kinase, the inhibition at 1 µM was found to be 98.9%. The molecule further registered a solubility at 2 h in data set [1] of 73 µg/mL (≈ 111 µM). Further, the IC50 at cytochrome P450 2C9 was 1210 nM.

As for `COc1c(NC(=O)c2cc3cccc(CN4CCN(C(=O)CN5CCCC5)CC4)c3n2C)cc(C(C)(C)C)cc1NS(C)(=O)=O` [1(16), 1-methyl-7-[4-(2-pyrrolidin-1-yl-acetyl)-piperazin-1-ylmethyl]-1H-indole-2-carboxylic acid-(5-tert-butyl-3-methanesulphonylamino-2-methoxy-phenyl)-amide], the inhibition at 1 µM on p38 MAP-kinase was found to be 98.4%. In addition, the solubility at 2 h in data set [1] came out at 620 µg/mL (≈ 971 µM). Besides, the IC50 on cytochrome P450 2C9 worked out at 20400 nM.

Consider `COc1c(NC(=O)c2cc3cccc(CN4CCN(C(=O)CN5CCN(C)CC5)CC4)c3n2C)cc(C(C)(C)C)cc1NS(C)(=O)=O` [1(17), 1-methyl-7-{4-[2-(4-methyl-piperazin-1-yl)-acetyl]-piperazin-1-ylmethyl}-1H-indole-2-carboxylic acid-(5-tert-butyl-3-methanesulphonylamino-2-methoxy-phenyl)-amide], for which the inhibition at 1 µM at p38 MAP-kinase worked out at 99.1%. In data set [1], the solubility at 2 h stood at 46 µg/mL (≈ 68.9 µM). Also, the IC50 on cytochrome P450 2C9 was found to be 990 nM.

Regarding `COc1c(NC(=O)c2cc3cccc(CC4CCCN(C(=O)[C@@H]5CCCN5C)CC4)c3n2C)cc(C(C)(C)C)cc1NS(C)(=O)=O` (stereo partly drawn) [1(18), 1-methyl-7-[1-((2S)-1-methyl-pyrrolidine-2-carbonyl)-azepan-4-ylmethyl]-1H-indole-2-carboxylic acid-(5-tert-butyl-3-methanesulphonylamino-2-methoxy-phenyl)-amide], at p38 MAP-kinase, the inhibition at 1 µM was 98%. For the same molecule, in data set [1], the solubility at 2 h came to 80 µg/mL (≈ 123 µM). At cytochrome P450 2C9, the IC50 was found to be 840 nM.

For the molecule `COc1c(NC(=O)c2cc3cccc(CC4CCCN(C(=O)C5CCN(C)CC5)CC4)c3n2C)cc(C(C)(C)C)cc1NS(C)(=O)=O` (stereo not drawn) [1(19), 1-methyl-7-[1-(1-methyl-piperidine-4-carbonyl)-azepan-4-ylmethyl]-1H-indole-2-carboxylic acid-(5-tert-butyl-3-methanesulphonylamino-2-methoxy-phenyl)-amide], the inhibition at 1 µM on p38 MAP-kinase is 98.5%. In data set [1], this molecule gave a solubility at 2 h of 98 µg/mL (≈ 147 µM). Besides, the IC50 at cytochrome P450 2C9 was found to be 3590 nM.

For the molecule `COc1c(NC(=O)c2cc3cccc(CC4CCCN(C(=O)[C@H]5CCCN5C)CC4)c3n2C)cc(C(C)(C)C)cc1NS(C)(=O)=O` (stereo partly drawn) [1(20), 1-methyl-7-[1-((2R)-1-methyl-pyrrolidine-2-carbonyl)-azepan-4-ylmethyl]-1H-indole-2-carboxylic acid-(5-tert-butyl-3-methanesulphonylamino-2-methoxy-phenyl)-amide], the inhibition at 1 µM at p38 MAP-kinase was 99.1%. The molecule also gave a solubility at 2 h in data set [1] of 124 µg/mL (≈ 190 µM). On cytochrome P450 2C9, the IC50 came to 2590 nM.

`COc1c(NC(=O)c2cc3cccc(CN4CCCN(C(=O)[C@H]5CCCN5C)CC4)c3n2C)cc(C(C)(C)C)cc1NS(C)(=O)=O` [1(21), 1-methyl-7-[4-((2R)-1-methyl-pyrrolidine-2-carbonyl)-[1,4]diazepan-1-ylmethyl]-1H-indole-2-carboxylic acid-(5-tert-butyl-3-methanesulphonylamino-2-methoxy-phenyl)-amide]: the inhibition at 1 µM on p38 MAP-kinase was determined as 98.9%. In data set [1], the concentration in solution (solubility at 2 h) was 45 µg/mL (≈ 68.9 µM). Also, on cytochrome P450 2C9, the IC50 came to 4020 nM.

For the molecule `COc1c(NC(=O)c2cc3cccc(CN4CCC(C(=O)N5CCN(C)CC5)CC4)c3n2C)cc(C(C)(C)C)cc1NS(C)(=O)=O` [1(22), 1-methyl-7-[4-(4-methyl-piperazine-1-carbonyl)-piperidin-1-ylmethyl]-1H-indole-2-carboxylic acid-(5-tert-butyl-3-methanesulphonylamino-2-methoxy-phenyl)-amide], the inhibition at 1 µM on p38 MAP-kinase came out at 99.1%. Also, in data set [1], the solubility at 2 h was determined as 42 µg/mL (≈ 64.3 µM). Moreover, the IC50 on cytochrome P450 2C9 turned out to be 1540 nM.

With `COc1c(NC(=O)c2cc3cccc(CN4CCC(C(=O)N5CC[C@H](N(C)C)C5)CC4)c3n2C)cc(C(C)(C)C)cc1NS(C)(=O)=O` [1(23), (S)-7-[4-(3-dimethylamino-pyrrolidine-1-carbonyl)-piperidin-1-ylmethyl]-1-methyl-1H-indole-2-carboxylic acid-(5-tert-butyl-3-methanesulphonylamino-2-methoxy-phenyl)-amide], on p38 MAP-kinase, the inhibition at 1 µM amounted to 97%. The solubility at 2 h in data set [1] amounted to 280 µg/mL (≈ 420 µM). Besides, the IC50 on cytochrome P450 2C9 is 1770 nM.

In the case of `COc1c(NC(=O)c2cc3cccc(CN4CCC(C(=O)N5CC[C@@H](N(C)C)C5)CC4)c3n2C)cc(C(C)(C)C)cc1NS(C)(=O)=O` [1(24), (R)-7-[4-(3-dimethylamino-pyrrolidine-1-carbonyl)-piperidin-1-ylmethyl]-1-methyl-1H-indole-2-carboxylic acid-(5-tert-butyl-3-methanesulphonylamino-2-methoxy-phenyl)-amide], at p38 MAP-kinase, the inhibition at 1 µM is 54.2%. This molecule also displayed a solubility at 2 h in data set [1] of 36 µg/mL (≈ 54 µM). Moreover, at cytochrome P450 2C9, the IC50 worked out at 2470 nM.

Take `CN1CCC[C@H]1C(=O)N1CCN(Cc2cccc3cc(C(=O)Nc4cccc(N5CCOCC5)c4)n(C)c23)CC1` [1(25), (S)-1-methyl-7-[4-(1-methyl-pyrrolidine-2-carbonyl)-piperazin-1-ylmethyl]-1H-indole-2-carboxylic acid-(3-morpholin-4-yl-phenyl)-amide]: the inhibition at 1 µM at p38 MAP-kinase was 35.4%. Also, the solubility at 2 h in data set [1] stood at 48 µg/mL (≈ 88.1 µM). The IC50 on cytochrome P450 2C9 stood at 7910 nM.

As for `COc1c(NC(=O)c2cc3cccc(CN4CCN(C(=O)N5CC[C@H](N(C)C)C5)CC4)c3n2C)cc(C(C)(C)C)cc1NS(C)(=O)=O` [2(1), (S)-7-[4-(3-dimethylamino-pyrrolidine-1-carbonyl)-piperazin-1-ylmethyl]-1-methyl-1H-indole-2-carboxylic acid (5-tert-butyl-3-methanesulphonylamino-2-methoxy-phenyl)-amide], the inhibition at 1 µM at p38 MAP-kinase is 99%. The molecule also came in with a solubility at 2 h in data set [1] of 28 µg/mL (≈ 41.9 µM). The IC50 at cytochrome P450 2C9 was 880 nM.

As for `COc1c(NC(=O)c2cc3cccc(CN4CCCN(C(=O)[C@H]5CCN(C)C5)CC4)c3n2C)cc(C(C)(C)C)cc1NS(C)(=O)=O` [5(1), (S)-1-methyl-7-[4-(1-methyl-pyrrolidine-3-carbonyl)-[1,4]diazepan-1-ylmethyl]-1H-indole-2-carboxylic acid-(5-tert-butyl-3-methanesulphonylamino-2-methoxy-phenyl)-amide], the inhibition at 1 µM on p38 MAP-kinase amounted to 94.9%. The concentration in solution in data set [1] (solubility at 2 h) was 170 µg/mL (≈ 260 µM). Further, the IC50 at cytochrome P450 2C9 was found to be 2040 nM.
